Experimental data reported in US12162836B2, “N-acyl-{4-[(4-aryl-phenyl)sulfonylmethyl]piperidine} compounds and their therapeutic use” (Modern Biosciences Limited, priority 2019, dated 2024).

Tested on: human, rat (Sprague Dawley) and dog (Beagle) hepatocytes
Assay: Metabolite identification (biaryl metabolite detection) in cryopreserved hepatocytes
Assay type: in vitro ADME
Details: primary hepatocyte incubations, 10 μM, final time point (60 minutes)
Procedure: The formation of metabolites in humans, rats and dogs was assessed to determine the propensity of the compounds to form a biaryl metabolite.
In vitro studies on the metabolism of drugs are usually performed using liver preparations such as isolated perfused livers, liver slices, liver homogenates, isolated cryopreserved hepatocytes, subcellular liver fractions (S9, cytosol, and microsomes), or recombinant metabolizing enzymes overexpressed on non-expressing cell systems, particularly CYP enzymes. Cryopreserved hepatocytes contain all the enzymes and co-factors needed for phase I and phase II drug metabolism, making them an excellent in vitro model for assessment of drug metabolic stability and metabolite profiling.
Cryopreserved human, rat (Sprague Dawley) and dog (Beagle) hepatocytes were revived from liquid nitrogen and plated at a seeding density of 2×10^6 cells/mL (>95% viability). Following a 15 minute incubation at 37° C. a sample was removed for a zero (0) minute time point assessment. […]
All samples were processed for analysis by protein precipitation using 500 μL ice-cold acetonitrile and analysed with a fit-for-purpose LC-MS/MS method.
At the completion of the study, the results were expressed as detection of the biaryl metabolite at the final time point.

In the case of `CC(=O)N1CCC(CS(=O)(=O)c2ccc(-c3ccc(F)cc3F)cc2)CC1` [NASMP-01, 1-(4-(((2′,4′-Difluoro-[1,1′-biphenyl]-4-yl)sulfonyl)methyl)piperidin-1-yl)ethan-1-one], the “Biaryl metabolite detected?” value is reported as “No”.
